Reference: patent US4950686A, “Anti-mycoplasma agent” (Shionogi & Co., Ltd., priority 1986, dated 1990)
Converted amounts (≈) assume the structure as drawn.

Legend:
[1] = system: Mycoplasma gallisepticum MR-1 (wild strain, tylosin-resistant); assay: Mycoplasma gallisepticum air-sac infection method in chicken, strain MR-1;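 as to Index of Isolation: index = (P×1 + Q×2 + R×3)/S with range 0 to 6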; format: in vivo, Mycoplasma gallisepticum; SPF chicken (white leghorn); settings: 100 mg/kg × once oral, 10 mg/ml sol. b
Description: (2) Test of Effectiveness Mycoplasma gallisepticum air-sac infection method
MR-1 (wild strain, tylosin-resistant)
Inoculation: To the right air-sac of 9 days old SPF chicken (a white leghorn) which has abstained from water and feed one day before is inoculated 0.20-0.25 ml/chicken of fresh mycoplasma culture incubated for 24-48 hr and diluted with broth (usually 100 times). The concentration in Table 2 is shown in a unit of mg/ml.
Medium: Chick PPLO broth supplemented with 15% equine serum (Eiken Kagaku Co., Ltd.)
Administration: A compound of this invention dissolved or suspended in the following solution is orally and forcibly administered once by a cannula immediately after the infection.
Anatomization and Isolation of Microorganism: The chickens are anatomized 5 days after the infection, and the right and left air sacs are investigated whether they are attacked with a disease or not. The change caused by the disease is represented in four degrees; -: no change, +: slight, ++: medium and +++: serious. Microorganism is isolated from the right and left air-sacs and the trachea by using a sterilized applicator.
Judgement: Judgement is done through an index of an air-sac disease and an index of a microorganism-isolation.
Index of an air-sac-disease: First, indexes in the right and left air-sacs are separately calculated according to the following formula;
{degree of disease (0-3)×chickens}/anatomized chickens
and the index is calculated by the following formula;
(index of right air-sac)×1+(index of left air-sac)×2
Index of a microorganism isolation:
P: chickens from the right air-sac of which microorganism is isolated,
Q: chickens from the trachea of which microorganism is isolated,
R: chickens from the left air-sac of which microorganism is isolated, and
S: chickens investigated.

[2] = system: Mycoplasma gallisepticum S6 (standard strain); assay: Anti-mycoplasma activity in vitro (MIC, broth dilution), strain S6; format: cell-based; settings: Mg S6, 37° C., 7 days
Outline: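 Chick PPLO broth with 20% equine serum; 2-fold serial agent dilutions inoculated with culture diluted to 10^6 CCU/ml (inoculum concentration before addition). Incubated 7 days at 37 °C; MIC by broth dilution.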

[3] = system: Mycoplasma gallisepticum T-7-T (wild strain, tylosin-resistant); assay: Mycoplasma gallisepticum air-sac infection method in chicken, strain T-7-T; format: in vivo, Mycoplasma gallisepticum; SPF chicken (white leghorn);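 as to Index of Isolation: index = (P×1 + Q×2 + R×3)/S with range 0 to 6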
Outline: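 9-day-old SPF white leghorn chickens, fasted one day, received tylosin-resistant M. gallisepticum T-7-T culture (usually diluted 100×) into the right air sac. Compound was given as a single forced oral dose by cannula immediately after infection, in mg/ml. At day 5, air-sac lesions (0–3) were scored as a weighted index and organisms were re-isolated from the air sacs and trachea.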

[4] = system: Mycoplasma hyopneumoniae ST-11 (standard strain); assay: Anti-mycoplasma activity in vitro (MIC, broth dilution), strain ST-11; format: cell-based; settings: Mesomycoplasma hyopneumoniae, Mh ST-11; read-out: MIC
Outline: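 MIC by broth dilution in Hanks' solution with 0.5% lactoalbumin, yeast, equine serum and phenol red, pH 7.4-7.6. Inoculum: 3-4-day culture, turned yellow, diluted 10-fold in broth (subcultured first if yellowing took over 4 days).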

[5] = system: Mycoplasma gallisepticum MR-1 (wild strain, tylosin-resistant); assay: Anti-mycoplasma activity in vitro (MIC, broth dilution), strain MR-1; format: cell-based; settings: Mg MR-1, 37° C., 7 days
Outline: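 Broth dilution in chick PPLO broth with 20% equine serum; 2-fold compound dilutions, inoculum diluted to 10^6 CCU/ml. Incubated 7 days at 37 °C; MIC recorded.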

[6] = 100 mg/kg × once oral, 10 mg/ml sol. b, inoculum 10^2
[7] = 200 mg/kg × once oral, 20 mg/ml sol. a, inoculum 1.9 × 10^5
[8] = 200 mg/kg × once oral, 20 mg/ml sol. c, inoculum 1.9 × 10^5

O=c1cccccc1O [Tropolone, tropolone]
Change of air-sac, left: + (chickens) ([1]; inoculum 0.3 × 10^5): 0 | Change of air-sac, left: ++ (chickens) ([1]; inoculum 0.3 × 10^5): 0 | Change of air-sac, left: +++ (chickens) ([1]; inoculum 0.3 × 10^5): 0 | Change of air-sac, left: - (chickens) ([1]; inoculum 0.3 × 10^5): 6 | Change of air-sac, right: + (chickens) ([1]; inoculum 0.3 × 10^5): 0 | Change of air-sac, right: ++ (chickens) ([1]; inoculum 0.3 × 10^5): 0 | Change of air-sac, right: +++ (chickens) ([1]; inoculum 0.3 × 10^5): 0 | Change of air-sac, right: - (chickens) ([1]; inoculum 0.3 × 10^5): 6 | Isolation, L (left air-sac) ([1]; inoculum 0.3 × 10^5): 3 | Isolation, R (right air-sac) ([1]; inoculum 0.3 × 10^5): 4 | Isolation, T (trachea) ([1]; inoculum 0.3 × 10^5): 3 | Mycoplasma Isolated Chickens ([1]; inoculum 0.3 × 10^5): 6 | Index of Isolation ([1]; inoculum 0.3 × 10^5, range 0-6.0): 3.2 | Index of Disease ([1]; inoculum 0.3 × 10^5, range 0-9.0): 0 | MIC [2]: 0.2 µg/mL (≈ 1.64 µM) | Change of air-sac, left: + (chickens) [3, 6]: 0 | Change of air-sac, left: ++ (chickens) [3, 6]: 0 | Change of air-sac, left: +++ (chickens) [3, 6]: 0 | Change of air-sac, left: - (chickens) [3, 6]: 8 | Change of air-sac, right: + (chickens) [3, 6]: 0 | Change of air-sac, right: ++ (chickens) [3, 6]: 0 | Change of air-sac, right: +++ (chickens) [3, 6]: 0 | Change of air-sac, right: - (chickens) [3, 6]: 8 | Isolation, L (left air-sac) [3, 6]: 1 | Isolation, R (right air-sac) [3, 6]: 0 | Isolation, T (trachea) [3, 6]: 1 | Mycoplasma Isolated Chickens [3, 6]: 2 | Index of Isolation ([3]; 100 mg/kg × once oral, 10 mg/ml sol. b, inoculum 10^2, range 0-6.0): 0.40 | Index of Disease ([3]; 100 mg/kg × once oral, 10 mg/ml sol. b, inoculum 10^2, range 0-9.0): 0 | Change of air-sac, left: + (chickens) [3, 7]: 0 | Change of air-sac, left: ++ (chickens) [3, 7]: 0 | Change of air-sac, left: +++ (chickens) [3, 7]: 0 | Change of air-sac, left: - (chickens) [3, 7]: 5 | Change of air-sac, right: + (chickens) [3, 7]: 0 | Change of air-sac, right: ++ (chickens) [3, 7]: 0 | Change of air-sac, right: +++ (chickens) [3, 7]: 0 | Change of air-sac, right: - (chickens) [3, 7]: 5 | Isolation, L (left air-sac) [3, 7]: 2 | Isolation, R (right air-sac) [3, 7]: 2 | Isolation, T (trachea) [3, 7]: 3 | Mycoplasma Isolated Chickens [3, 7]: 3 | Index of Isolation ([3]; 200 mg/kg × once oral, 20 mg/ml sol. a, inoculum 1.9 × 10^5, range 0-6.0): 2.8 | Index of Disease ([3]; 200 mg/kg × once oral, 20 mg/ml sol. a, inoculum 1.9 × 10^5, range 0-9.0): 0 | Change of air-sac, left: + (chickens) [3, 8]: 0 | Change of air-sac, left: ++ (chickens) [3, 8]: 0 | Change of air-sac, left: +++ (chickens) [3, 8]: 0 | Change of air-sac, left: - (chickens) [3, 8]: 5 | Change of air-sac, right: + (chickens) [3, 8]: 0 | Change of air-sac, right: ++ (chickens) [3, 8]: 0 | Change of air-sac, right: +++ (chickens) [3, 8]: 0 | Change of air-sac, right: - (chickens) [3, 8]: 5 | Isolation, L (left air-sac) [3, 8]: 4 | Isolation, R (right air-sac) [3, 8]: 4 | Isolation, T (trachea) [3, 8]: 5 | Mycoplasma Isolated Chickens [3, 8]: 5 | Index of Isolation ([3]; 200 mg/kg × once oral, 20 mg/ml sol. c, inoculum 1.9 × 10^5, range 0-6.0): 5.2 | Index of Disease ([3]; 200 mg/kg × once oral, 20 mg/ml sol. c, inoculum 1.9 × 10^5, range 0-9.0): 0 | MIC [4]: 0.78 µg/mL (≈ 6.39 µM) | MIC [5]: 0.39 µg/mL (≈ 3.19 µM)
